Experiments:
JAK2 kinase domain = target: T1, JAK2 kinase domain (Homo sapiens, UniProt O60674); assay: Biochemical assay for inhibitors of JAK kinase activity (JAK2, 33P-γ-ATP/dowex resin); conditions: JAK2 kinase domain 1 nM, 60 μM ATP
T1 construct: commercially available JAK2 kinase domain; purchased Invitrogen, Eugene, Oreg
Excerpt: Biochemical Assay for Inhibitors of JAK Kinase Activity
Specific JAK2, JAK1 or JAK3 peptide substrates are trans-phosphorylated by JAK kinases in the presence of ATP traced with 33P-γ-ATP. At the end of the phosphorylation reaction, the unreacted ATP, cold and radioactive, is captured by an excess of dowex ion exchange resin that eventually settles by gravity to the bottom of the reaction plate. The supernatant is subsequently withdrawn and transferred into a counting plate that is then evaluated by β-counting.
500 g of wet resin (SIGMA, custom prepared resin DOWEX 1×8 200-400 mesh, 2.5 Kg) are weighed out and diluted 2 to 1 in 150 mM sodium formate, pH 3.00. The resin is allowed to settle down overnight and then the supernatant is discarded. After three washes as above over a couple of days, the resin is allowed to settle and two volumes (with respect to the resin volume) of 150 mM sodium formate buffer are added.
Kinase buffer was composed of 50 mM HEPES pH 7.5 containing 10 mM MgCl2, 2.5 mM DTT, 10 μM Na3VO4 and 0.2 mg/mL BSA.
JAK2 Specific Assay Conditions
The JAK2 kinase assay was run with a final enzyme concentration of 1 nM, in the presence of 60 μM ATP, 3 nM 33P-γ-ATP and 64 μM of substrate BioDBn*306 (Aminoacid sequence: LPLDKDYYVVREPGQ—SEQ ID NO: 1). The peptidic substrate was purchased from American Peptide Company (Sunnyvale, Calif.).
For IC50 determination, test compounds are received as a 1 mM solution in 100% DMSO, distributed into 96 well plates: compounds are then plated into the first column of a microtiter plate (A1 to G1), 100 μL/well.
An automated station for serial dilutions (Biomek FX, Beckman) is used for producing 1:3 dilutions in 100% DMSO, from line A1 to A10, and for all the compounds in the column. Moreover, 4-5 copies of daughter plates are prepared by reformatting 5 μL of this first set of 100% DMSO dilution plates into 384 deep well-plates: one of these plates with the serial dilutions of test compounds will be thawed the day of the experiments, reconstituted at a 3× concentration with water and used in the IC50 determination assays. In a standard experiment, the highest concentration (3×) of all compounds is 30 μM, while the lowest one is 1.5 nM. Each 384 well-plate will contain at least one curve of the standard inhibitor staurosporine and reference wells (total enzyme activity vs. no enzymatic activity) for the Z′ and signal to background evaluation.
384-well plates, V bottom (test plates) are prepared with 5 μL of the compound dilution (3×) and then placed onto a PlateTrak 12 robotized station (Perkin Elmer; the robot has one 384-tip pipetting head for starting the assay plus one 96-tip head for dispensing the resin) together with one reservoir for the Enzyme mix (3×) and one for the ATP mix (3×). At the start of the run, the robot aspirates 5 μL of ATP mix, makes an air gap inside the tips (3 μl) and aspirates 5 μL of JAK2 mix. The following dispensation into the plates plus 3 cycles of mixing, done by the robot itself, starts the kinase reaction. At this point, the correct concentrations are restored for all the reagents. The robot incubates the plates for 60 minutes at room temperature, and then stops the reaction by pipetting 60 μL of dowex resin suspension into the reaction mix. In order to avoid tip clogging, wide bore tips are used to dispense the resin suspension. Three cycles of mixing are done immediately after the addition of the resin. Another mixing cycle is performed after all the plates are stopped, this time using normal tips: the plates are then allowed to rest for about one hour in order to allow resin sedimentation. At this point, 27 μL of the supernatant are transferred into 384-Optiplates (Perkin-Elmer), with 50 μL of Microscint 40 (Perkin-Elmer); after 5 min of orbital shaking the plates are read on a Perkin-Elmer Top Count radioactivity counter. […]

[1] = test system: JAK2 dependent human megakaryoblastic leukemia cell line SET-2; assay: Cell proliferation assay (CellTiter-Glo, 72 hours); type: cell-based; conditions: Homo sapiens, SET-2 cells
Experimental: The JAK2 dependent human megakaryoblastic leukemia cell line SET-2 (DSMZ, Braunschweig GERMANY) and the JAK2 independent human chronic myelogenous leukaemia cell line K562 (ECACC, Wiltshire, UK) were cultured in RPMI-1640 medium-Glutamax (Gibco BRL, Gaithesburg, Md., USA), supplemented with 10% fetal bovine serum (FBS) at 37° C. and 5% CO2.
Cell Proliferation Assay:
Approximately 5×10^3 cells were plated into 384 microtiter plate wells in 50 μL of growth media with different concentrations of inhibitors. The cells were incubated at 37° C. and 5% CO2 for 72 hours, then the plates were processed using CellTiter-Glo assay (Promega, Madison, Wis., USA) following the manufacturer's instruction. Briefly 25 μL/well reagent solution is added to each well and after 5 minutes shaking the micro-plates are read by Envision luminometer (PerkinElmer, Waltham, Mass., USA).
Data are analyzed by Symix Assay Explorer software (Symix Technologies Inc.) that provides sigmoidal fitting algorithm of the 8 points dilutions curves for IC50 determination.

T1 sequence (O60674 849-1124 limits assumed): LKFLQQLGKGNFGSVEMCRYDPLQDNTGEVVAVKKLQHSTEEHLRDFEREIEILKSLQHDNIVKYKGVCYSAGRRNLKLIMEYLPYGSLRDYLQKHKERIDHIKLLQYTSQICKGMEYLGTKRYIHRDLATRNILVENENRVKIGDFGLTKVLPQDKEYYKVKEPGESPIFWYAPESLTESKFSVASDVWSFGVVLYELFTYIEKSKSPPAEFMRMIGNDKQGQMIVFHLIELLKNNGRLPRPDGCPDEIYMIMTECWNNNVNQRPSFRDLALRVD

Structure (SMILES) | IC50 (JAK2 kinase domain) | IC50 [1]
Cc1ccc(Cl)cc1-c1[nH]c(-c2nc(N)ncc2C#Cc2ccccc2NCCO)cc1C(N)=O [compound 43, 5-[2-Amino-5-({2-[(2-hydroxyethyl)amino]phenyl}ethynyl)pyrimidin-4-yl]-2-(5-chloro-2-methylphenyl)-1H-pyrrole-3-carboxamide] | 0.013 µM | 0.96 µM
COc1ccccc1C#Cc1cnc(N)nc1-c1cc(C(N)=O)c(-c2cc(Cl)ccc2C)[nH]1 [compound 5, 5-{2-Amino-5-[(2-methoxyphenyl)ethynyl]pyrimidin-4-yl}-2-(5-chloro-2-methylphenyl)-1H-pyrrole-3-carboxamide] | 0.005 µM | 0.75 µM
Cc1ccc(Cl)cc1-c1[nH]c(-c2nc(N)ncc2C#CCN(C)C)cc1C(N)=O [compound 44, 5-{2-Amino-5-[3-(dimethylamino)prop-1-yn-1-yl]pyrimidin-4-yl}-2-(5-chloro-2-methylphenyl)-1H-pyrrole-3-carboxamide] | 0.011 µM | 0.46 µM
Cc1ccc(Cl)cc1-c1[nH]c(-c2nc(N)ncc2C#Cc2ccc(Br)cc2)cc1C(N)=O [compound 40, 5-{2-Amino-5-[(4-bromophenyl)ethynyl]pyrimidin-4-yl}-2-(5-chloro-2-methylphenyl)-1H-pyrrole-3-carboxamide] | 0.085 µM | 2.48 µM
Cc1ccc(Cl)cc1-c1[nH]c(-c2ccnc(N)n2)c(C#Cc2cccc(NC3CCN(C)CC3)c2)c1C(N)=O [compound 80, 5-(2-Aminopyrimidin-4-yl)-2-(5-chloro-2-methylphenyl)-4-({3-[(1-methylpiperidin-4-yl)amino]phenyl}ethynyl)-1H-pyrrole-3-carboxamide] | 0.006 µM | 0.78 µM
Cc1ccc(Cl)cc1-c1[nH]c(-c2nc(N)ncc2C#Cc2ccc(N3CCC(N4CCCC4)CC3)cc2)cc1C(N)=O [compound 26, 5-[2-Amino-5-({4-[4-(pyrrolidin-1-yl)piperidin-1-yl]phenyl}ethynyl)pyrimidin-4-yl]-2-(5-chloro-2-methylphenyl)-1H-pyrrole-3-carboxamide] | 0.001 µM | 0.29 µM
Cc1ccc(Cl)cc1-c1[nH]c(-c2nc(N)ncc2C#Cc2cccc(NC3CCN(C)CC3)c2)cc1C(N)=O [compound 12, 5-[2-Amino-5-({3-[(1-methylpiperidin-4-yl)amino]phenyl}ethynyl)pyrimidin-4-yl]-2-(5-chloro-2-methylphenyl)-1H-pyrrole-3-carboxamide] | 0.001 µM | 0.5 µM
Cc1ccc(Cl)cc1-c1[nH]c(-c2nc(N)ncc2C#Cc2ccc(CN3CCN(C)CC3)cc2)cc1C(N)=O [compound 65, 5-[2-Amino-5-({4-[(4-methylpiperazin-1-yl)methyl]phenyl}ethynyl)pyrimidin-4-yl]-2-(5-chloro-2-methylphenyl)-1H-pyrrole-3-carboxamide] | 0.001 µM | 0.08 µM
Cc1ccc(Cl)cc1-c1[nH]c(-c2nc(N)ncc2C#Cc2ccccc2)cc1C(N)=O [compound 1, 5-[2-Amino-5-(phenylethynyl)pyrimidin-4-yl]-2-(5-chloro-2-methylphenyl)-1H-pyrrole-3-carboxamide] | 0.002 µM | 0.3 µM
Cc1ccc(Cl)cc1-c1[nH]c(-c2nc(N)ncc2C#Cc2ccc(N3CCC[C@H]3CN3CCCC3)cc2)cc1C(N)=O [compound 31, 5-[2-Amino-5-({4-[(2S)-2-(pyrrolidin-1-ylmethyl)pyrrolidin-1-yl]phenyl}ethynyl)pyrimidin-4-yl]-2-(5-chloro-2-methylphenyl)-1H-pyrrole-3-carboxamide] | 0.001 µM | 0.31 µM
Cc1ccc(Cl)cc1-c1[nH]c(-c2nc(N)ncc2C#Cc2cccnc2)cc1C(N)=O [compound 53, 5-[2-Amino-5-(pyridin-3-ylethynyl)pyrimidin-4-yl]-2-(5-chloro-2-methylphenyl)-1H-pyrrole-3-carboxamide] | 0.002 µM | 0.11 µM
Cc1ccc(Cl)cc1-c1[nH]c(-c2nc(N)ncc2C#Cc2ccccc2NCCN(C)C)cc1C(N)=O [compound 45, 5-{2-Amino-5-[(2-{[2-(dimethylamino)ethyl]amino}phenyl)ethynyl]pyrimidin-4-yl}-2-(5-chloro-2-methylphenyl)-1H-pyrrole-3-carboxamide] | 0.01 µM | 0.56 µM
Cc1ccc(Cl)cc1-c1[nH]c(-c2nc(N)ncc2C#CC(C)(C)O)cc1C(N)=O [compound 54, 5-[2-Amino-5-(3-hydroxy-3-methylbut-1-yn-1-yl)pyrimidin-4-yl]-2-(5-chloro-2-methylphenyl)-1H-pyrrole-3-carboxamide] | 0.016 µM | 0.78 µM
Cc1ccc(Cl)cc1-c1[nH]c(-c2nc(N)ncc2C#CC2CC2)cc1C(N)=O [compound 38, 5-[2-Amino-5-(cyclopropylethynyl)pyrimidin-4-yl]-2-(5-chloro-2-methylphenyl)-1H-pyrrole-3-carboxamide] | 0.002 µM | 0.57 µM
